Laboratory results taken from publication PMC2680759, “Non-Invasive Molecular Imaging of Fibrosis Using a Collagen-Targeted Peptidomimetic of the Platelet Collagen Receptor Glycoprotein VI” (PLoS ONE, 2009).
Bridges are numbered along the chain shown (N, C = ends). Where no end group is shown, it is not given here.

Columns and labels:
Details in all cases: biotin-peptide 50 µg/mL, microtitration plate, n = 3
type III collagen = target: T1, type III collagen (Homo sapiens, UniProt P02461); test: Solid phase assay, type III collagen; assay type: binding
T1 sequence (P02461 154-1221 limits assumed): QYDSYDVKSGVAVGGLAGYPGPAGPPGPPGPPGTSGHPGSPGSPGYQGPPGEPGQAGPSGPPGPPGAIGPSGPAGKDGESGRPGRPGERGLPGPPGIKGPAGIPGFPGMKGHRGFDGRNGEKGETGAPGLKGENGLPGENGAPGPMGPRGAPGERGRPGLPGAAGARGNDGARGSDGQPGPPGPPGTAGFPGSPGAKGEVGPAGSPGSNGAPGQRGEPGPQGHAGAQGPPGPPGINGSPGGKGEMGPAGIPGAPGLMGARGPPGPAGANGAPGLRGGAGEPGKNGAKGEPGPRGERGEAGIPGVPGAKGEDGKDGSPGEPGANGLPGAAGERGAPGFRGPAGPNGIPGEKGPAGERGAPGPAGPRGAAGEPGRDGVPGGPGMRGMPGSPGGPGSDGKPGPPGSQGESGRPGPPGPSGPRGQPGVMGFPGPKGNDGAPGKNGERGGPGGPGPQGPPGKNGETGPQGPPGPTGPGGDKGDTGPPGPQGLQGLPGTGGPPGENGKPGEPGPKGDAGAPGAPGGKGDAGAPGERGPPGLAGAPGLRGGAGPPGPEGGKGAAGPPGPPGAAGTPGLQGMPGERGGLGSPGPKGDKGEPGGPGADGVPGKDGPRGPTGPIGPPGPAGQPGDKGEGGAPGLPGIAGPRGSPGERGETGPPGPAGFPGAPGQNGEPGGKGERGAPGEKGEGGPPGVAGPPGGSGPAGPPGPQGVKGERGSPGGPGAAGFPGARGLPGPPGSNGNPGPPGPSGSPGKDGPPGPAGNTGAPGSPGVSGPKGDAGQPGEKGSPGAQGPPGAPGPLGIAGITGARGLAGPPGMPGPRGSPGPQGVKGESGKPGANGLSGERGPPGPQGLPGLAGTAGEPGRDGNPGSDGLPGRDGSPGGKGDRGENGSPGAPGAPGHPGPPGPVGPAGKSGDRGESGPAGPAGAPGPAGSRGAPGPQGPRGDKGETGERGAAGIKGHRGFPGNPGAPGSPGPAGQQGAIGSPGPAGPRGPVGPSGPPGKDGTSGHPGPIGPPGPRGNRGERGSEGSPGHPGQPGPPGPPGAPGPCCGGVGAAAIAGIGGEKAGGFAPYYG

[1] = tested on: collagen related peptide (CRP); test: Solid phase assay, collagen related peptide; assay type: binding
Description: (§1) Biotin-peptides (50 µg.mL^−1) were incubated on microtitration wells, coated with 1 µg of type-I collagen, convulxin, collagen related peptides, bovine fibrinogen, human fibronectin, rat vitronectin, murine laminin or bovine serum albumin. Bound peptides were detected using HRP-coupled extravidin and the HRP substrate O-phenyl-dianisidine.

vitronectin = target: T2, vitronectin (Rattus norvegicus, UniProt F7F5X0); test: Solid phase assay, vitronectin; assay type: binding
T2 sequence (F7F5X0 20-490): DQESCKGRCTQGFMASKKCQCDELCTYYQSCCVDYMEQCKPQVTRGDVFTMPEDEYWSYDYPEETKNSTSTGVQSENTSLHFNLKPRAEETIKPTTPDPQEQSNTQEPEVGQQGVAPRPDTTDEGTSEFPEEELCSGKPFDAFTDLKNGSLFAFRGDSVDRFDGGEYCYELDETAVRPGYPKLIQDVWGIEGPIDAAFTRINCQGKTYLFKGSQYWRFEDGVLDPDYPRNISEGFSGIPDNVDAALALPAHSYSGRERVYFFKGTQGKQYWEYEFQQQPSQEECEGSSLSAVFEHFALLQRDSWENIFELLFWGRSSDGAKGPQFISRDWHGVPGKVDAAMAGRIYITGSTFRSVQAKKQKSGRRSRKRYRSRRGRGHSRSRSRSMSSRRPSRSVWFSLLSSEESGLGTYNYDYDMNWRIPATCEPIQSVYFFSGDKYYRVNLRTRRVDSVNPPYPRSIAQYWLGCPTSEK
Description: as §1

fibronectin = fibronectin (Homo sapiens, UniProt P02751); test: Solid phase assay, fibronectin; assay type: binding
Description: as §1

laminin = laminin (Mus musculus, UniProt P02468+P02469+P19137); test: Solid phase assay, laminin; assay type: binding, murine
Description: as §1

fibronectin, sequence (P02751 32-2477): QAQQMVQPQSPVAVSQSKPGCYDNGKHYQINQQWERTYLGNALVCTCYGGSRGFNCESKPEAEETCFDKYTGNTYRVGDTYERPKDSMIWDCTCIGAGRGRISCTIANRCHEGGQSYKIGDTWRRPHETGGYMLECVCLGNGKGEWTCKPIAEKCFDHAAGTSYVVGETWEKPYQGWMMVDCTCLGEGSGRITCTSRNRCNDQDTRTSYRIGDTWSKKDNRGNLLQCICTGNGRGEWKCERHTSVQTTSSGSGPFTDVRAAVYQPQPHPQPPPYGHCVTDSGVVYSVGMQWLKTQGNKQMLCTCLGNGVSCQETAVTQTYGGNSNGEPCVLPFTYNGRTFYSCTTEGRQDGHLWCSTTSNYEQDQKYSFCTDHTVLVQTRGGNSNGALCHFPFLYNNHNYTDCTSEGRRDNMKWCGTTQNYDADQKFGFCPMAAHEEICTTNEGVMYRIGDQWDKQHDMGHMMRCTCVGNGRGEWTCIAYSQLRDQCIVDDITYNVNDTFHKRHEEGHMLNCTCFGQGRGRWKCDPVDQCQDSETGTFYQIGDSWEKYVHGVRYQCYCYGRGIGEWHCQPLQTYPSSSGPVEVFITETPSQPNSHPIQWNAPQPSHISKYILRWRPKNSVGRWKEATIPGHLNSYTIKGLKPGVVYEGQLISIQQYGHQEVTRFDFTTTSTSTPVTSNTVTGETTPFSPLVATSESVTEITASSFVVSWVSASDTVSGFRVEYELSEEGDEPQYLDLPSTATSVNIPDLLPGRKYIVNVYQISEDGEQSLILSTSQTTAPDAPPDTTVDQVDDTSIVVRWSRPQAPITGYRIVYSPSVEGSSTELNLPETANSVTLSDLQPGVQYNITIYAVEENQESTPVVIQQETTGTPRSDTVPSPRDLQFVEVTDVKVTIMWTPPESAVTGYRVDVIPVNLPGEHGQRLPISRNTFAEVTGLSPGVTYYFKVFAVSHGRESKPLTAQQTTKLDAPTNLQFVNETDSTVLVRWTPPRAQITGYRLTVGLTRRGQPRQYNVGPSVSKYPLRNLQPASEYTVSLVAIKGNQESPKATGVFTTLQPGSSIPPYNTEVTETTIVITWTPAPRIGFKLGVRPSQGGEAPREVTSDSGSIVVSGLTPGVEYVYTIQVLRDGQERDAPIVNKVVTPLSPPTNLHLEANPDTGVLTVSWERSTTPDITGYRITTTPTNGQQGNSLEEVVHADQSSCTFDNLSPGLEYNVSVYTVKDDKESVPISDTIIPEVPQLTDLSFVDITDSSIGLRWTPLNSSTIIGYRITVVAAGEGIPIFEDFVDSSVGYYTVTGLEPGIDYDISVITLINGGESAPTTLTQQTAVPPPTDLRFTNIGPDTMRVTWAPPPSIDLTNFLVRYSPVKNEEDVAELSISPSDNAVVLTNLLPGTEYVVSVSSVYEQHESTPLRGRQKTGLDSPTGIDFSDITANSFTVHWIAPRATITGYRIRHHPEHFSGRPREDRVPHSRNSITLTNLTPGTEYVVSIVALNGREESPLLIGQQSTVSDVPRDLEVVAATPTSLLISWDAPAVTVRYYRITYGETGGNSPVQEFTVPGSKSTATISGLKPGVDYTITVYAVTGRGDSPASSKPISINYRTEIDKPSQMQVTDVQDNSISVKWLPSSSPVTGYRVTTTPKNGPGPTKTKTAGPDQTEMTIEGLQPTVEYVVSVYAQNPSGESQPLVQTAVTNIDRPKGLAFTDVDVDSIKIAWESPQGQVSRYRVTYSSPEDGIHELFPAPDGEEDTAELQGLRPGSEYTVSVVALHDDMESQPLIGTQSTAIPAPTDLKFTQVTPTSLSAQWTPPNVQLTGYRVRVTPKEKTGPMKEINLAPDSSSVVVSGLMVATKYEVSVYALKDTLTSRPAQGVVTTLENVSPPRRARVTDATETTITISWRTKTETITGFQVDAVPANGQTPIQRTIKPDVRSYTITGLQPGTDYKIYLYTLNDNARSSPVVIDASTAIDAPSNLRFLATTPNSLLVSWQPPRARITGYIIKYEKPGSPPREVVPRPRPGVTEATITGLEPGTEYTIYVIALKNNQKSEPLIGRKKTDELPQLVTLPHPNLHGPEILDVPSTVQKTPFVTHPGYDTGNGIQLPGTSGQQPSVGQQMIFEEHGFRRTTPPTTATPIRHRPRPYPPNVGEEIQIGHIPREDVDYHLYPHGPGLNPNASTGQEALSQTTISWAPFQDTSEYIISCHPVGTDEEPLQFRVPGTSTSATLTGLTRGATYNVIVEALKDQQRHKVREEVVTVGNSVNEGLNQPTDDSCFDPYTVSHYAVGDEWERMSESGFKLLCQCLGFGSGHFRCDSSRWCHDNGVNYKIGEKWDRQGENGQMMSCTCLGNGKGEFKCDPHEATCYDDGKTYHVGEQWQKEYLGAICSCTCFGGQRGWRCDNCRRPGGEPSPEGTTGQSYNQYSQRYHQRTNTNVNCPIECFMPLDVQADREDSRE

| Binding to immobilized type III collagen (type III collagen) | Binding to immobilized CRP [1] | Binding to immobilized vitronectin (vitronectin) | Binding to immobilized fibronectin (fibronectin) | Binding to immobilized laminin (laminin) | Molecule |
| --- | --- | --- | --- | --- | --- |
| bound | bound | either to be weak or not to occur at all | either to be weak or not to occur at all | consistently bound | CSCC[C@@H]1NC(=O)[C@H](C(C)C)NC(=O)[C@H](CCCNC(=N)N)NC(=O)CNC(=O)[C@@H]2CCCN2C(=O)[C@@H](NC(=O)CNC(=O)[C@H](CO)NC(=O)CNC(=O)[C@H](CO)NC(=O)CCCC[C@@H]2SC[C@@H]3NC(=O)N[C@@H]32)CSSC[C@@H](C(N)=O)NC(=O)[C@@H]2CCCN2C(=O)CNC(=O)[C@H](CCC(=O)O)NC(=O)[C@H](CC(=O)O)NC(=O)[C@H](CC(=O)O)NC(=O)CNC(=O)[C@H](CC(C)C)NC(=O)[C@H](Cc2c[nH]cn2)NC(=O)[C@H](CC(C)C)NC(=O)CNC(=O)[C@H](Cc2c[nH]cn2)NC1=O [collagelin] |
| did not bind | did not bind | did not bind | did not bind | did not bind | SGSGCGPQGARGLTGASAGGPC (disulfide 5-22 (inferred)) [reference compound] |
